# From ChEMBL document CHEMBL1201862, “PubChem BioAssay data set” (2004)
# The source made the active and inactive calls.
# Tests used:
# Cytochrome P450 2C9 = Cytochrome P450 2C9 (Homo sapiens, UniProt P11712)
# cells = type: functional, cell-based; conditions: HEK-CNG
# Cytochrome P450 2D6 = Cytochrome P450 2D6 (Homo sapiens, UniProt P10635);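 further: CYP2D6 member of a cytochrome P450 panel assay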
# Galanin receptor type 3 = Galanin receptor type 3 (Homo sapiens, UniProt O60755); assay: Fluorescence-based cell-based primary high throughput dose response assay to identify antagonists of the Galanin Receptor 3 (GalR3).; type: functional
# Galanin receptor type 3, sequence (O60755 whole entry): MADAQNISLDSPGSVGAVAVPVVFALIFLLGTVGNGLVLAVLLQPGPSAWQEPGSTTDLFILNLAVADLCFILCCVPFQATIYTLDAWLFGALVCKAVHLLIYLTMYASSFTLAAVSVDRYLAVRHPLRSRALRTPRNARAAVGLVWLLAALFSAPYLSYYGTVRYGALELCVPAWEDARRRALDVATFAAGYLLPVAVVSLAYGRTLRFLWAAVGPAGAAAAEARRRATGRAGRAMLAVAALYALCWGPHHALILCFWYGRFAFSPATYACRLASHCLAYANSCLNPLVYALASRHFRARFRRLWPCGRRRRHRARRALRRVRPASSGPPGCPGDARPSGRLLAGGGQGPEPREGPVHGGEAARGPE
# Kallikrein-7 = Kallikrein-7 (Homo sapiens, UniProt P49862); assay: Fluorescence Intensity-based biochemical primary high throughput dose response assay to identify activators of kallikrein-7 (K7) zymogen.
# Kallikrein-7, sequence (P49862 whole entry): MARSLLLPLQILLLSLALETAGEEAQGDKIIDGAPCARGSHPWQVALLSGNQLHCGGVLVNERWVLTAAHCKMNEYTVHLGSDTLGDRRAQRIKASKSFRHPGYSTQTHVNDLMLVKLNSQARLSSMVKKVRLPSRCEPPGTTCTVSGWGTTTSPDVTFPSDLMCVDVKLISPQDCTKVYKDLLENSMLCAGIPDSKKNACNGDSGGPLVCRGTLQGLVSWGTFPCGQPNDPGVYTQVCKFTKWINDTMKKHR
# [1] = target: T1, Sentrin-specific protease 8 (Homo sapiens, UniProt Q96LD8); type: functional
# T1 sequence (Q96LD8 whole entry): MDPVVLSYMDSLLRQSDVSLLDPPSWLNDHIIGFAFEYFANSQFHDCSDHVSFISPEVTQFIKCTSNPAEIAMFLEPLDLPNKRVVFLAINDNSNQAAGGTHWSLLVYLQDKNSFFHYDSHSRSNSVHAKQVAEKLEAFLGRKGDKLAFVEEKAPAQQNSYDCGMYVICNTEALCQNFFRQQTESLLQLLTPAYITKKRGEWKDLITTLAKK
# [2] = target: T1, Sentrin-specific protease 8; type: functional; remark: listed apart in the source
# fMet-Leu-Phe receptor = fMet-Leu-Phe receptor (Homo sapiens, UniProt P21462); assay: FPR ligands, dose response (AID 519); type: functional
# fMet-Leu-Phe receptor, sequence (P21462 whole entry): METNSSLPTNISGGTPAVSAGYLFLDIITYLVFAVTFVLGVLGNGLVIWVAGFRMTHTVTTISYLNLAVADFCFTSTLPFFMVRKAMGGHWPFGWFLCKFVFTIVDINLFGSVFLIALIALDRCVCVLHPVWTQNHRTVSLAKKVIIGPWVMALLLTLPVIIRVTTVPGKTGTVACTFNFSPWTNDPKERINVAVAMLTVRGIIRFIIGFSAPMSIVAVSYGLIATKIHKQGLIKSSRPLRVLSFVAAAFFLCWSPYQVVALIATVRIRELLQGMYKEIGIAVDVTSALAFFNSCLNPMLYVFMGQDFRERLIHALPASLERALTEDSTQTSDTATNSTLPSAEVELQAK
# [3] = StAR promoter reporter inhibition counter-screen, dose response, counter-screen for LRH-1 inverse agonist project, cell-based, luminescence, luciferase reporter (AID 651969); type: functional
# Steroidogenic factor 1 = Steroidogenic factor 1 (Homo sapiens, UniProt Q13285); assay: Counterscreen for inverse agonists of the liver receptor homolog-1 (LRH-1; NR5A2): Luminescence-based cell-based high throughput dose response assay to identify inverse agonists of the Steroidogenic Factor 1 Nuclear Receptor (SF1; NR5A1).; type: functional
# Steroidogenic factor 1, sequence (Q13285 whole entry): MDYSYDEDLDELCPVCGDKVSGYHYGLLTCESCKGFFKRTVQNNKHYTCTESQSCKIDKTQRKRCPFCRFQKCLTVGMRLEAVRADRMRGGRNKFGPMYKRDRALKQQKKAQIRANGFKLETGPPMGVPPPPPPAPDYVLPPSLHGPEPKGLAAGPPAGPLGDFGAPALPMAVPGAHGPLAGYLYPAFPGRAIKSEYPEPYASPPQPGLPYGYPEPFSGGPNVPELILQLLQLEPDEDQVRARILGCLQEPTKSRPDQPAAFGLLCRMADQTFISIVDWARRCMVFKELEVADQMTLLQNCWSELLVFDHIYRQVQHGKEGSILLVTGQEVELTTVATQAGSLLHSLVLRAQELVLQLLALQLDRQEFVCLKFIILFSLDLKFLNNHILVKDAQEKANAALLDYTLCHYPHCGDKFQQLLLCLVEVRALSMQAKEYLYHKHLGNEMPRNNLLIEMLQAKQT
# [4] = target: Nuclear receptor subfamily 5 group A member 2 (Homo sapiens, UniProt O00482); type: functional, cell-based;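 further: HEK293T cells transfected with LRH-1 and a StAR promoter luciferase reporter; potency for inhibitors that lower LRH-1 driven reporter light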
# Nuclear receptor subfamily 5 group A member 2, sequence (O00482 whole entry): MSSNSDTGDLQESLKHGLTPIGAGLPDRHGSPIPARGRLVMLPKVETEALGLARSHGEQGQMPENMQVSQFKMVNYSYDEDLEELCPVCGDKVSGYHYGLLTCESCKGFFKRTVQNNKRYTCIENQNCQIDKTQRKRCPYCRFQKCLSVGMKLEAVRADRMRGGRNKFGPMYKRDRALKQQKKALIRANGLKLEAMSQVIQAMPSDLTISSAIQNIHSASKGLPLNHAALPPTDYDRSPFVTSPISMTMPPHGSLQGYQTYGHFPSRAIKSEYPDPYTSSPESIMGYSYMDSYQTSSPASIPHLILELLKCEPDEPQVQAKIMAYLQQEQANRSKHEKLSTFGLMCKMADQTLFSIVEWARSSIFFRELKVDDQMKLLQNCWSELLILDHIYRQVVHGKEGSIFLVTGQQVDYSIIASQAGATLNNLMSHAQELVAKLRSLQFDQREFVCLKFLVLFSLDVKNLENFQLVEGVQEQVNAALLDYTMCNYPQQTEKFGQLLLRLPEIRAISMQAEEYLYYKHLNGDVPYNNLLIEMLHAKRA
# [5] = HEK293T cell cytotoxicity, dose response, cytotoxicity control for HIV Vif inhibitor project, cherry-picks (AID 652208); type: functional, cell-based
# [6] = target: COUP transcription factor 2 (Homo sapiens, UniProt P24468); assay: Luminescence-based cell-based high throughput dose response assay to identify inhibitors of COUP-TFII (NR2F2).; type: functional;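 further: HEK293 cells transiently cotransfected with COUP-TFII expression vector and reporter; luciferase reporter luminescence driven by COUP-TFII from the pX2-168 reporter plasmid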
# COUP transcription factor 2, sequence (P24468 whole entry): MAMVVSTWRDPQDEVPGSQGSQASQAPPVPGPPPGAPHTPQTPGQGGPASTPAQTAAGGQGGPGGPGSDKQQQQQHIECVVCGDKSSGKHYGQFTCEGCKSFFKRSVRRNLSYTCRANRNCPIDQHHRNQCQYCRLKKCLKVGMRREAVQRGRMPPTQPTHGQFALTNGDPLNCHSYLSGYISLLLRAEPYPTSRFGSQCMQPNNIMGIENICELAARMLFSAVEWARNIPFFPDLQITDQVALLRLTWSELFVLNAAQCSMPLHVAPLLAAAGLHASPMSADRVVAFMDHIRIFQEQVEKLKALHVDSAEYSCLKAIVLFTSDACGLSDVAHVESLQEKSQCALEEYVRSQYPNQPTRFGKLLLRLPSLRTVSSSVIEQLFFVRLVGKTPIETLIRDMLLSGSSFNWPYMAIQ
# [7] = cytotoxicity in HEK-293T cells, dose response, cytotoxicity control for TCR NF-kB inhibitor project, luminescence, T-cell screen hits (AID 489026); type: functional, cell-based;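 further: cells exposed to compound about 14 hours before the viability readout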
# INS1 = assay: beta cell apoptosis inhibitors, cytokine rescue, dose response, luminescence, retest (AID 449756); type: functional, cell-based; conditions: Rattus norvegicus;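 further: cell death triggered by IL-1 beta plus TNF-alpha plus IFN-gamma mixture; protective hits raise ATP signal compared with cytokine alone wells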
# Cytochrome P450 2C9, sequence (P11712 whole entry): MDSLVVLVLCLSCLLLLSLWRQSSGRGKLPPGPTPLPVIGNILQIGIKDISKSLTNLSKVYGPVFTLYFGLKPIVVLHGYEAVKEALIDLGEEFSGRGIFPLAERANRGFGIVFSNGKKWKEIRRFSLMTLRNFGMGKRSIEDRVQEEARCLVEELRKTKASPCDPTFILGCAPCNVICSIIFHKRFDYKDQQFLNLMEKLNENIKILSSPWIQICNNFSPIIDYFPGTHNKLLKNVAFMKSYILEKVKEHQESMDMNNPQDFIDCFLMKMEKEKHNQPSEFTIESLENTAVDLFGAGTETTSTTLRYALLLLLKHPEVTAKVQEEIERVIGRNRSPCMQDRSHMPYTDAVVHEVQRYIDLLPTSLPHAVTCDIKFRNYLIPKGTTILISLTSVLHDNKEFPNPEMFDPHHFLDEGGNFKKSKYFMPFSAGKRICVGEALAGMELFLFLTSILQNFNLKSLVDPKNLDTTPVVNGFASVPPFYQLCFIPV
# Cytochrome P450 2D6, sequence (P10635 whole entry): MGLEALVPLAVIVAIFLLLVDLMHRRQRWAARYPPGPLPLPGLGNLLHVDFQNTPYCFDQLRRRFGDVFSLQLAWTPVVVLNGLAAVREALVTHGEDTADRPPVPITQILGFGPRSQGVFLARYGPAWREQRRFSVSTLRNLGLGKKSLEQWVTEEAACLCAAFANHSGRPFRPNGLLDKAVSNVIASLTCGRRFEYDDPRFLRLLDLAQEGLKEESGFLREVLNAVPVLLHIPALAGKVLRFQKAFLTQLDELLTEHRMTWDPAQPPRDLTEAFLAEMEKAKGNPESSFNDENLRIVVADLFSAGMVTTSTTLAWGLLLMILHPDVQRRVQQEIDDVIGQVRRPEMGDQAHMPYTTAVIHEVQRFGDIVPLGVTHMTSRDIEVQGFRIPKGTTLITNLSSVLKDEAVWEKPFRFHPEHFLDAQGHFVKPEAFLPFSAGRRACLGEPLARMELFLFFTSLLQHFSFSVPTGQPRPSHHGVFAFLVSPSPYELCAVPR
compound,measurement,setting,value
Cc1nc2sc(C#N)c(N)c2c2c1CCCC2,AC50,Cytochrome P450 2C9,inconclusive
same,EC50,cells,> 29.9 µM (inactive)
same,AC50,Cytochrome P450 2D6,0.398 µM (inconclusive)
same,IC50,Galanin receptor type 3,> 29.9 µM (inactive)
O=C(NCCCN1CCCC1=O)c1cc2nc(-c3ccco3)cc(C(F)(F)F)n2n1,EC50,Kallikrein-7,> 69.5 µM (inactive)
O=C(COC(=O)c1cc(S(=O)(=O)N2CCc3ccccc3C2)ccc1Cl)NCc1ccco1,IC50,[1],> 100 µM (inactive)
same,IC50,[2],12.4 µM (active)
COc1ccc(-c2nc(N3CCCC3)[nH]c(=O)c2C#N)cc1,Ki,fMet-Leu-Phe receptor,> 66.7 µM (inactive)
CN(C)S(=O)(=O)c1cccc(C(=O)OCC(=O)Nc2ccc3c(c2)OCCO3)c1,IC50,[3],35.9 µM (inactive)
same,IC50,Steroidogenic factor 1,3.18 µM (active)
same,IC50,[4],90.5 µM (inactive)
Cc1cc(NC(=O)CSc2nnc(Cn3c(=O)sc4ccccc43)n2-c2ccccc2C)no1,Ki,fMet-Leu-Phe receptor,> 66.7 µM (inactive)
COC(=O)c1ccc2c(=O)n(Cc3ccco3)c(SCC(=O)Nc3cc(C)on3)nc2c1,AC50,[5],35.7 µM (active)
O=C(CSc1nnc(Cn2nnc3ccccc32)o1)N(Cc1ccc(F)cc1)c1ccccc1,IC50,[6],4.87 µM (active)
same,IC50,[7],> 80 µM (inactive)
same,EC50,cells,> 29.9 µM (inactive)
same,AC50,INS1,4.43 µM (active)
same,IC50,Galanin receptor type 3,1.24 µM (active)
